Key:
[1] = tested on: P388 mouse leukemia cells; assay: Life-span-prolonging (anti-tumor) effect on mice subcutaneously inoculated with P388 mouse leukemia cells; type: in vivo, mouse (CDF1 female); conditions: 0.1 mg/kg i.v. on days 1, 5 and 9; for Survival days ave. ± s. d.: all marked ** (p < 0.01); for response vs control in vivo at 0.1 mg/kg: Mus musculus, P388, iv, survival vs vehicle, read-out: T/C (%)
Experimental: i) Anti-tumor effect of the compound of the present invention on mice subcutaneously inoculated with P388 mouse leukemia cells.
Experiment was performed with CDF1 female mice (6 weeks) purchased from NIPPON SLC K.K., which were divided into groups consisting of 5 animals. […]. In this connection, lentinan and picibanil were administered intravenously on days 1, 3, 5, 7 and 9 after implantation, and sizofilan was administered subcutaneously on days 1 through 9. Statistical analysis was performed according to the Mann-Whiteney test.

mouse bone marrow cells = assay: In vitro mouse bone marrow cell-proliferation-promoting effect (3H-TdR uptake); type: cell-based, mouse (BDF1 female); conditions: Mus musculus, Bone marrow cell, 96 h, 4 days, read-out: Uptake of 3H-TdR (% of control), bone marrow cells; for activity at 0.1 µg/mL: 10^-1 μg/ml; for activity at 0.01 µg/mL: 10^-2 μg/ml
Experimental: In vitro mouse bone marrow cell-proliferation-promoting effect of the present compound
Experiment was performed with BDF1 female mice (6 weeks old) purchased from NIPPON SLC K.K. Bone marrow cells were removed from the femoral bone of mice by the conventional manner, floated on 10% FCS RPMI 1640, layered over Lympholite M, and centrifuged to give a monocyte fraction. 1×10^6 cells/ml of the monocyte fraction was suspended in 10% FCS RPMI 1640. The cell suspension (100 μl/well) and a vehicle or sample (10 μl/well) which was prepared so as to have a final level shown in Table 2 were added into a wells of round-bottomed 96 well plate, and cultured under the condition of 5% CO2 at 37° C. for 4 days. 0.5 μCi/well of ^3 H-thymidine (^3 H-TdR) was added. After 6 hours, the cells were harvested, and the amount of ^3 H-TdR uptaken into nucleus was measured by a liquid scintillation counter. The ratio of the uptake of ^3 H-TdR in the sample group to that in the vehicle group was calculated and used as the activation rate for promoting in vitro mouse bone marrow cell growth.

mouse splenic lymphocyte = assay: In vitro mouse splenic lymphocyte-proliferation-stimulating effect (3H-TdR uptake); type: cell-based, mouse (BDF1 female); conditions: Mus musculus, Splenic lymphocyte, 48 h, 2 days, read-out: Uptake of 3H-TdR (% of control), splenic lymphocytes; for activity at 1 µg/mL: 10^0 μg/ml; for activity at 0.001 µg/mL: 10^-3 μg/ml; for activity at 0.1 µg/mL: 10^-1 μg/ml; for activity at 0.01 µg/mL: 10^-2 μg/ml
Experimental: i) In vitro mouse splenic lymphocyte growth promoting effects of the present compounds
Experiment was performed with BDF1 female mice (6 weeks old) purchased from NIPPON SLC K.K. Spleens were removed from mice, and spleen cells were brayed with slide glasses and hemolized with NH4 Cl. 2×10^6cells/ml of the spleen cells which had been hemolized were suspended in 10% FCS RPMI 1640. The cell suspension (100 μl/well) and a vehicle or sample (10 μl/well) which was prepared so as to have a final level shown in Table 3 were added into wells of a round-bottomed 96 well plate, and cultured under the condition of 5% CO2 at 37° C. for 2 days. 0.5 μCi/well of ^3 H-thymidine (^3 H-TdR) was added. After 6 hours, the cells were harvested, and the amount of ^3 H-TdR uptaken into nucleus was measured by a liquid scintillation counter. The ratio (%) of the uptake of ^3 H-TdR in the sample group to that in the vehicle group was calculated and used as the in vitro mouse splenic lymphocyte-proliferation-stimulating rate.

[2] = tested on: mixed lymphocyte culture reaction (spleen cells of C57BL/6 and BALB/C mice); assay: Mixed lymphocyte culture reaction (MLR); type: cell-based, mouse (C57BL/6 stimulator, BALB/C responder); conditions: Mus musculus, Lymphocyte, 42 hours, read-out: MLR activating rate (%); for activity at 1 µg/mL: 1 × 10^0 μg/ml; for activity at 0.1 µg/mL: 1 × 10^-1 μg/ml
Experimental: ii) Mixed lymphocyte culture reaction (MLR) of the compounds of the present invention
Spleen cells were prepared from C57BL/6 mice and treated with 50 μg/ml of mitomycin C for 30 minutes. The treated cells were used as stimulator cells, and the spleen cells of BALB/C mice as responder cells. 2×10^6 cells/ml of the both spleen cells were suspended in 10% FCS RPMI1640 as a culture medium. The above-described cells (50 μl/well) and a sample (10 μl/well) were added into wells of a round-bottomed 96 well plate, and cultured under the condition of 5% CO2 at 37° C. for 42 hours. 0.5 μCi/well of ^3 H-thymidine (^3 H-TdR) was added. After 8 hours, the cells were harvested, and the amount of uptaken ^3 H-TdR was measured by a liquid scintillation counter to calculate the ratio (%) of the uptake of ^3 H-TdR in the sample group to that in the vehicle group as the MLR activating rate.

Row | SMILES | Survival days ave. ± s. d. [1] | response vs control in vivo at 0.1 mg/kg [1] | activity at 0.1 µg/mL (mouse bone marrow cells) | activity at 0.01 µg/mL (mouse bone marrow cells) | activity at 1 µg/mL (mouse splenic lymphocyte) | activity at 0.001 µg/mL (mouse splenic lymphocyte) | activity at 1 µg/mL [2] | activity at 0.1 µg/mL [2] | activity at 0.1 µg/mL (mouse splenic lymphocyte) | activity at 0.01 µg/mL (mouse splenic lymphocyte)
1 | CCCCCCCCCCCCCCCCCCCCCC[C@@H](O)C(=O)N[C@@H](CO[C@H]1O[C@H](CO)[C@H](O)[C@H](O[C@@H]2O[C@@H]([C@H](O)CO)[C@H](O)[C@H]2O)[C@H]1O)[C@H](O)[C@H](O)CCCCCCCCCCCCCC [Compound 16, O-β-D-galactofuranosyl-(1→3)-O-α-D-galactopyranosyl-(1→1)-(2S,3S,4R)-2-amino-N-[(R)-2-hydroxytetracosanoyl]-1,3,4-octadecanetriol] | 14.8 ± 0.8 days | 116% | 325% | 296% | 740% | 702% | 274% | 262% |  | 
2 | CCCCCCCCCCCCCCCCCCCCCC[C@@H](O)C(=O)N[C@@H](CO[C@H]1O[C@H](CO)[C@H](O)[C@H](O[C@@H]2O[C@@H]([C@H](O)CO)[C@H](O)[C@H]2O)[C@H]1O)[C@H](O)[C@H](O)CCCCCCCCCCCC(C)C [Compound 15, O-β-D-galactofuranosyl-(1→3)-O-α-D-galactopyranosyl-(1→1)-(2S,3S,4R)-2-amino-N-[(R)-2-hydroxytetracosanoyl]-16-methyl-1,3,4-heptadecanetriol] | 14.0 ± 0 days | 109% | 501% | 291% | 845% | 394% | 295% | 253% |  | 
3 | CCCCCCCCCCCCCCCCCCCCCC[C@@H](O)C(=O)N[C@@H](CO[C@H]1O[C@H](CO)[C@H](O)[C@H](O[C@@H]2O[C@@H]([C@H](O)CO)[C@H](O)[C@H]2O)[C@H]1O)[C@H](O)[C@H](O)CCCCCCCCCCCCC [Compound 14, O-β-D-galactofuranosyl-(1→3)-O-α-D-galactopyranosyl-(1→1)-(2S,3S,4R)-2-amino-N-[(R)-2-hydroxytetracosanoyl]-1,3,4-heptadecanetriol] | 13.8 ± 0.4 days | 108% | 838% | 659% | 640% | 252% | 261% | 232% |  | 
4 | CCCCCCCCCCCCCCCCCCCCCC[C@@H](O)C(=O)N[C@@H](CO[C@H]1O[C@H](CO)[C@H](O)[C@H](O[C@@H]2O[C@@H]([C@H](O)CO)[C@H](O)[C@H]2O)[C@H]1O)[C@H](O)[C@H](O)CCCCCCCCCCCC [Compound 12, O-β-D-galactofuranosyl-(1→3)-O-α-D-galactopyranosyl-(1→1)-(2S,3S,4R)-2-amino-N-[(R)-2-hydroxytetracosanoyl]-1,3,4-hexadecanetriol] | 13.8 ± 0.8 days | 108% | 381% | 378% | 509% | 113% | 203% | 187% | 982% | 772%
5 | CCCCCCCCCCCCCCCCCCCC[C@@H](O)C(=O)N[C@@H](CO[C@H]1O[C@H](CO)[C@H](O)[C@H](O[C@@H]2O[C@@H]([C@H](O)CO)[C@H](O)[C@H]2O)[C@H]1O)[C@H](O)[C@H](O)CCCCCCCCCCCC [Compound 10, O-β-D-galactofuranosyl-(1→3)-O-α-D-galactopyranosyl-(1→1)-(2S,3S,4R)-2-amino-N-[(R)-2-hydroxydocosanoyl]-1,3,4-hexadecanetriol] | 13.8 ± 0.4 days | 108% | 286% | 147% | 509% | 102% | 174% | 132% | 375% | 277%
6 | CCCCCCCCCCCCCCCCCCCCC[C@@H](O)C(=O)N[C@@H](CO[C@H]1O[C@H](CO)[C@H](O)[C@H](O[C@@H]2O[C@@H]([C@H](O)CO)[C@H](O)[C@H]2O)[C@H]1O)[C@H](O)[C@H](O)CCCCCCCCCCCC [Compound 11, O-β-D-galactofuranosyl-(1→3)-O-α-D-galactopyranosyl-(1→1)-(2S,3S,4R)-2-amino-N-[(R)-2-hydroxytricosanoyl]-1,3,4-hexadecanetriol] | 13.4 ± 0.5 days | 105% | 410% | 281% | 646% | 116% | 225% | 258% |  | 858%
7 | CCCCCCCCCCCCCCCCCCCCCC[C@@H](O)C(=O)N[C@@H](CO[C@H]1O[C@H](CO)[C@H](O)[C@H](O[C@@H]2O[C@@H]([C@H](O)CO)[C@H](O)[C@H]2O)[C@H]1O)[C@H](O)[C@H](O)CCCCCCCCCCC(C)C [Compound 13, O-β-D-galactofuranosyl-(1→3)-O-α-D-galactopyranosyl-(1→1)-(2S,3S,4R)-2-amino-N-[(R)-2-hydroxytetracosanoyl]-15-methyl-1,3,4-hexadecanetriol] | 14.6 ± 0.5 days | 114% | 546% | 395% | 788% | 227% | 276% | 248% |  | 
8 | CCCCCCCCCCCCCCCCCCCCCC[C@@H](O)C(=O)N[C@@H](CO[C@H]1O[C@H](CO)[C@H](O)[C@H](O[C@@H]2O[C@@H]([C@H](O)CO)[C@H](O)[C@H]2O)[C@H]1O)[C@H](O)[C@H](O)CCCCCCCCCCCCC(C)C [Compound 17, O-β-D-galactofuranosyl-(1→3)-O-α-D-galactopyranosyl-(1→1)-(2S,3S,4R)-2-amino-N-[(R)-2-hydroxytetracosanoyl]-17-methyl-1,3,4-octadecanetriol] | 14.8 ± 0.8 days | 116% | 592% |  | 781% | 767% | 283% | 242% |  | 

Reference: patent US5780441A, “Sphingoglycolipid compounds and therapeutic uses thereof” (Kirin Beer Kabushiki Kaisha, priority 1993, dated 1998)
